Experimental data taken from patent US11149031B2, “Substituted N-(3-fluoropropyl)-pyrrolidine compounds, processes for their preparation and therapeutic uses thereof” (SANOFI, priority 2016, dated 2021).
Read-outs that look alike come from different tables or passages of the source.

Columns and labels:
[1] = target: His6-ERα298-554 Y537S mutant (ERα ligand-binding domain) (Homo sapiens (Human), UniProt P03372, Y537S); assay: Test A: biochemical antagonist activity, LanthaScreen TR-FRET ERα coactivator assay, Y537S mutant; conditions: read-out: Antagonism Y537S IC50
In short: (§1)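 IC50 values come from a 4-parameter logistic fit of the 520:495 nm TR-FRET ratio after overnight room-temperature incubation. The mix held 0.5 nM ERα 298–554 LBD, Tb-labelled anti-His6 antibody, 250 nM PGC1a peptide and 3 nM or 10 nM estradiol, pH 7.4 phosphate buffer with DTT.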

[2] = target: His6-ERα298-554 D538G mutant (ERα ligand-binding domain) (Homo sapiens (Human), UniProt P03372, D538G); assay: Test A: biochemical antagonist activity, LanthaScreen TR-FRET ERα coactivator assay, D538G mutant; conditions: read-out: Antagonism D538G IC50
In short: as §1

[3] = system: MCF7 cells expressing mutant estrogen receptor Tyr 537 Ser; assay: Test B: cell proliferation/viability assay (CellTiter-Glo) on MCF7 Tyr 537 Ser mutant; assay type: cell-based; conditions: MCF7 cells expressing ER Tyr 537 Ser mutant, 7 days of compound exposure, read-out: proliferation MCF7 Y537S IC50
From the text: (§2) Test B: Cell Proliferation/Viability Assay on MCF7 (Breast Tumor Cells) WT and Mutants Cell Lines
(§3) Test B involves measuring the in vitro proliferation activity of the compounds of the invention by analyzing the viability of the tumor cells.
(§4) The measurements of the viability were made using a breast cancer cell viability assay as described hereunder.
(§5) MCF7 cells expressing (and dependent) on mutants estrogen receptor Tyr 537 Ser or Asp 538 Gly were generated by transfection of MCF7 parental cells (ATCC) with expression vectors coding for different mutants of estrogen receptor Tyr 537 Ser or Asp 538 Gly. The cells were first selected by antibiotic (related to vector expression) and then selected for their growth dependence on estrogen receptor based on their ability to grow in vitro in absence of estradiol (parental cell line die in absence of estradiol).
(§6) MCF7 cells (ATCC) or MCF7 cells expressing (and dependent) on mutants estrogen receptor Tyr 537 Ser or Asp 538 Gly were seeded in 384 wells microplate at concentration of >999 cells/30 μL per well in red phenol free MEM medium containing 5% charcoal dextran striped FBS. The following day, 9 points serial 1:5 dilution of each compound were added to the cells in 20 μL at final concentrations ranging from 3-0.000001 μM. After 7 days of compound exposure, 50 μL of CellTiter-Glo (promega) was added to the cells and relative luminescence arbitrary units (RLUs) were determined in luminescence plate reader (Envision device). CellTiter-Glo was added to 50 μL medium without cells to determine the background signal.
(§7) The percent of viability of each sample was determined as follows: (RLU sample−RLU background/RLU untreated−RLU background)*100=% viability.

[4] = system: MCF7 cells (breast tumor cells) WT; assay: Test B: cell proliferation/viability assay (CellTiter-Glo) on MCF7 WT; assay type: cell-based; conditions: 7 days of compound exposure
Protocol: as §2, §3
The measurements of the viability were made using a breast cancer cell viability assay as described hereunder. […]
as §6, §7

ERα in MCF7 cells = ERα in MCF7 cells (Homo sapiens (Human), UniProt P03372); assay: Test C: estrogen receptor degradation activity, ERα in cell western assay in MCF7 cells; assay type: cell-based; conditions: for DC50: 4 hours post compound addition, ERα in cell western, read-out: Degradation IC50; for % Degradation at 3 μM: 4 hours, relative to fulvestrant
In short: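 Steps: seed MCF7 in phenol red-free medium containing 5% charcoal-dextran stripped FBS; next day add compound, final 3–0.000018 μM; after 4 h fix with 5% formalin plus 0.1% Triton; stain ERα overnight, then secondary at 37 °C for 60 min with Syto-64 at 2 μM; scan green and red intensities.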

[5] = target: His6-ERα298-554 WT (ERα ligand-binding domain) (Homo sapiens (Human), UniProt P03372); assay: Test A: biochemical antagonist activity, LanthaScreen TR-FRET ERα coactivator assay, WT; conditions: read-out: Antagonism WT IC50
In short: as §1

[6] = system: MCF7 cells expressing mutant estrogen receptor Asp 538 Gly; assay: Test B: cell proliferation/viability assay (CellTiter-Glo) on MCF7 Asp 538 Gly mutant; assay type: cell-based; conditions: MCF7 cells expressing ER Asp 538 Gly mutant, 7 days of compound exposure, read-out: proliferation MCF7 D538G IC50
From the text: as §2, §3, §4, §5, §6, §7

[7] = asterisk (*): protocol using 10 nM estradiol

His6-ERα298-554 Y537S mutant (ERα ligand-binding domain), sequence (P03372 298-554 Y537S): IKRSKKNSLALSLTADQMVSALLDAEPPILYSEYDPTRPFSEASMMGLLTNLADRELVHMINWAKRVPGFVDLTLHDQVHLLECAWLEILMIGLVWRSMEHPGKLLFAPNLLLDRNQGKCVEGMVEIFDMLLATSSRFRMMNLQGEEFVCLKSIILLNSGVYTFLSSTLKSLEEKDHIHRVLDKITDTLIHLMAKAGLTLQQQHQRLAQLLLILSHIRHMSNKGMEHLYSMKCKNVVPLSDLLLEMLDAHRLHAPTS
His6-ERα298-554 D538G mutant (ERα ligand-binding domain), sequence (P03372 298-554 D538G): as the sequence (P03372 298-554 Y537S) above, with S240Y, D241G counted along it
His6-ERα298-554 WT (ERα ligand-binding domain), sequence (P03372 298-554): as the sequence (P03372 298-554 Y537S) above, with S240Y counted along it
ERα in MCF7 cells, sequence (P03372 whole entry): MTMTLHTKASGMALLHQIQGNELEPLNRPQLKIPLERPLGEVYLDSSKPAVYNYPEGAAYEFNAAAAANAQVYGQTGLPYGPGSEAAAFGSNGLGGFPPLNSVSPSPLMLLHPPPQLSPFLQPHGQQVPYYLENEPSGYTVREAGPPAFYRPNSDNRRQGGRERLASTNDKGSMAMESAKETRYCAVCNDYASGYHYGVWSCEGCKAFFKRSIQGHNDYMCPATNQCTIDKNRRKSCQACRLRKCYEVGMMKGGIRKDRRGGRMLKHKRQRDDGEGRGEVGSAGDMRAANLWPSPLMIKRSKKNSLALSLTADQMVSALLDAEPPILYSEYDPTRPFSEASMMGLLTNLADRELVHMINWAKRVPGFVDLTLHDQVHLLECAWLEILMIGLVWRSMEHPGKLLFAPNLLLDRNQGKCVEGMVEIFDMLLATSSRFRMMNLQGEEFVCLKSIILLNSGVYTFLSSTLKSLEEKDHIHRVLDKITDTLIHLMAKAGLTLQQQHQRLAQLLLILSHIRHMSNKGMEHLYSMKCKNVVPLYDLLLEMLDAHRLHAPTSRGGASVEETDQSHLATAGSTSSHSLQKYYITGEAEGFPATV

SMILES	IC50 [1, 7]	IC50 [2, 7]	IC50 ([3]; Homo sapiens, MCF7, 168 h)	IC50 ([4]; Homo sapiens, MCF7, 168 h)	DC50 (ERα in MCF7 cells)	% Degradation at 3 μM (ERα in MCF7 cells)	IC50 [5, 7]	IC50 ([6]; Homo sapiens, MCF7, 168 h)	IC50 ([3]; Homo sapiens, 168 h)	IC50 ([4]; Homo sapiens, 168 h)	IC50 ([6]; Homo sapiens, 168 h)	IC50 [3]	IC50 [4]	IC50 [6]	IC50 ([1]; protocol with 3 nM estradiol)	IC50 ([2]; protocol with 3 nM estradiol)	IC50 ([5]; protocol with 3 nM estradiol)
Oc1ccc2c(c1)SCCC(c1ccc(OC(F)F)c(F)c1)=C2c1ccc(O[C@H]2CCN(CCCF)C2)nc1 [Example 207, 4-[4-(difluoromethoxy)-3-fluoro-phenyl]-5-[6-[(3S)-1-(3-fluoropropyl)pyrrolidin-3-yl]oxy-3-pyridyl]-2,3-dihydro-1-benzothiepin-8-ol]	6 nM	9 nM	2 nM	0.1 nM	0.5 nM	85%	2 nM	0.3 nM									
Cc1ccc(C2=C(c3ccc(O[C@H]4CCN(CCCF)C4)cc3)c3ccc(OP(=O)(O)O)cc3SC2)c(F)c1 [Example 48, [3-(2-fluoro-4-methyl-phenyl)-4-[4-[(3S)-1-(3-fluoropropyl)pyrrolidin-3-yl]oxyphenyl]-2H-thiochromen-7-yl]dihydrogen phosphate]	> 4000 nM	> 4000 nM			0.8 nM	89%	> 4000 nM		17 nM	1 nM	6 nM						
Oc1ccc2c(c1)SCC(c1ccc(OCF)cc1)=C2c1ccc(O[C@H]2CCN(CCCF)C2)cc1 [Example 60, 3-[4-(fluoromethoxy)phenyl]-4-[4-[(3S)-1-(3-fluoropropyl)pyrrolidin-3-yl]oxyphenyl]-2H-thiochromen-7-ol]	103 nM	215 nM	3 nM	0.5 nM	0.2 nM	73%	9 nM	0.4 nM									
CS(=O)(=O)c1ccc(C2=C(c3ccc(O[C@H]4CCN(CCCF)C4)cc3)c3ccc(O)cc3SCC2)cc1 [Example 194, 5-[4-[(3S)-1-(3-fluoropropyl)pyrrolidin-3-yl]oxyphenyl]-4-(4-methylsulfonylphenyl)-2,3-dihydro-1-benzothiepin-8-ol]	141 nM	206 nM	3 nM	0.2 nM	0.2 nM	89%	10 nM	0.4 nM									
Cc1ccc(C2=C(c3cnc(O[C@H]4CCN(CCCF)C4)nc3)c3ccc(O)cc3SC2)c(F)c1 [Example 77, 3-(2-fluoro-4-methyl-phenyl)-4-[2-[(3S)-1-(3-fluoropropyl)pyrrolidin-3-yl]oxypyrimidin-5-yl]-2H-thiochromen-7-ol]	197 nM	323 nM	29 nM	2 nM	1 nM	91%	16 nM	5 nM									
Oc1ccc2c(c1)CCCC(c1ccc(SC(F)(F)F)cc1)=C2c1ccc(N[C@H]2CCN(CCCF)C2)cc1 [Example 90, 5-[4-[[(3S)-1-(3-fluoropropyl)pyrrolidin-3-yl]amino]phenyl]-6-[4-(trifluoromethylsulfanyl)phenyl]-8,9-dihydro-7H-benzo[7]annulen-2-ol]	165 nM	293 nM	4 nM	0.3 nM	0.4 nM	91%	12 nM	0.5 nM									
Oc1ccc(C2Sc3cc(O)ccc3OC2c2ccc(O[C@H]3CCN(CCCF)C3)cc2)cc1 (stereo partly drawn) [Example 258, 2-[4-[(3S)-1-(3-fluoropropyl)pyrrolidin-3-yl]oxyphenyl]-3-(4-hydroxyphenyl)-2,3-dihydro-1,4-benzoxathiin-6-ol]	2420 nM	> 4000 nM	17 nM	6 nM	5 nM	77%	203 nM	1 nM									
Cc1ccc(C2=C(c3ccc(O[C@H]4CCN(CCCF)C4)nc3)c3ccc(O)cc3SC2)c(F)c1 [Example 78, 3-(2-fluoro-4-methyl-phenyl)-4-[6-[(3S)-1-(3-fluoropropyl)pyrrolidin-3-yl]oxy-3-pyridyl]-2H-thiochromen-7-ol]	15 nM	29 nM	4 nM	0.3 nM	0.2 nM	88%	1 nM	0.9 nM									
Oc1ccc2c(c1)OCCC(c1ccc(OC3CC3)cc1)=C2c1ccc(O[C@H]2CCN(CCCF)C2)cc1 [Example 149, 4-[4-(cyclopropoxy)phenyl]-5-[4-[(3S)-1-(3-fluoropropyl)pyrrolidin-3-yl]oxyphenyl]-2,3-dihydro-1-benzoxepin-8-ol]	289 nM	303 nM	12 nM	0.5 nM	0.9 nM	91%	23 nM	2 nM									
CC1Cc2c([nH]c3ccccc23)C(c2c(F)cc(O[C@H]3CCN(CCCF)C3)cc2F)N1CC(C)(C)F (single isomer, unassigned) [Example 256]	101 nM	120 nM			0.2 nM	91%	6 nM					2 nM	0.1 nM	0.7 nM			
Cc1ccc(C2=C(c3ccc(O[C@H]4CCN(CCCF)C4)cc3)c3ccc(O)cc3SCC2)c(F)c1 [Example 164, 4-(2-fluoro-4-methyl-phenyl)-5-[4-[(3S)-1-(3-fluoropropyl)pyrrolidin-3-yl]oxyphenyl]-2,3-dihydro-1-benzothiepin-8-ol]			5 nM	0.6 nM	0.5 nM	91%		0.6 nM							9 nM	13 nM	3 nM
Cc1ccc(C2=C(c3ccc(O[C@H]4CCN(CCCF)C4)cc3)c3ccc(O)cc3[S+]([O-])C2)c(F)c1 (stereo partly drawn) [Example 57, 3-(2-fluoro-4-methyl-phenyl)-4-[4-[(3S)-1-(3-fluoropropyl)pyrrolidin-3-yl]oxyphenyl]-1-oxo-2H-thiochromen-7-ol]	> 4000 nM	> 4000 nM	> 999 nM	33 nM	3 nM	89%	1070 nM	> 999 nM									
Oc1ccc2c(c1)SCC(c1ccc(Cl)nc1F)=C2c1ccc(O[C@H]2CCN(CCCF)C2)cc1 [Example 55, 3-(6-chloro-2-fluoro-3-pyridyl)-4-[4-[(3S)-1-(3-fluoropropyl)pyrrolidin-3-yl]oxyphenyl]-2H-thiochromen-7-ol]	444 nM	971 nM	5 nM	0.7 nM	0.2 nM	88%	48 nM	0.3 nM									
